# Results as given in the kinase profiling compilation of Christmann-Franck et al. (2016).
# Key:
# Test in all cases: radiometric filter-binding kinase assay
# SYK (human) = SYK (human) (UniProt P43405); conditions: compound 10.0 µM
# MAPK14 (human) = MAPK14 (human) (UniProt Q16539); conditions: compound 10.0 µM
# NEK2 (human) = NEK2 (human) (UniProt P51955); conditions: compound 10.0 µM
# INSRR (human) = INSRR (human) (UniProt P14616); conditions: compound 10.0 µM
# PIM2 (human) = PIM2 (human) (UniProt Q9P1W9); conditions: compound 10.0 µM
# [1] = tested on: RPS6KB1 (human), P23443 [T412E]; conditions: compound 10.0 µM
# CSNK1D (human) = CSNK1D (human) (UniProt P48730); conditions: compound 10.0 µM
# BTK (human) = BTK (human) (UniProt Q06187); conditions: compound 10.0 µM
# PRKACA (human) = PRKACA (human) (UniProt P17612); conditions: compound 10.0 µM
# RIPK2 (human) = RIPK2 (human) (UniProt O43353); conditions: compound 10.0 µM
# RIPK2 (human), sequence (O43353 whole entry, looked up): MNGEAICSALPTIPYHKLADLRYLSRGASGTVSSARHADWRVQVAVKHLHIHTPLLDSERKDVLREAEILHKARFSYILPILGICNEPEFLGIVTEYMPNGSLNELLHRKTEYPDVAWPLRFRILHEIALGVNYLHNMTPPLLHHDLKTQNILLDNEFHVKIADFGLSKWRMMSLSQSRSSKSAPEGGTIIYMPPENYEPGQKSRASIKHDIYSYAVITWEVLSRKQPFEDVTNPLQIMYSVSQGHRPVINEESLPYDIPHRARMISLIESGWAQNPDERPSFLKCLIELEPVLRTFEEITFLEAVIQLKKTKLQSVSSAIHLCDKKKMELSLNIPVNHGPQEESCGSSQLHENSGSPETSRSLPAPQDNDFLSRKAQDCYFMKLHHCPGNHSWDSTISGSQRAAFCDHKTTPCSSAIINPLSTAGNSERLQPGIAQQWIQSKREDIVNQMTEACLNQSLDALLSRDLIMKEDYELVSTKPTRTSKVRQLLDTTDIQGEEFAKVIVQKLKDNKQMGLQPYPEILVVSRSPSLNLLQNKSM
# EPHB4 (human) = EPHB4 (human) (UniProt P54760); conditions: compound 10.0 µM
# MAPK1 (human) = MAPK1 (human) (UniProt P28482); conditions: compound 10.0 µM
# MAPK15 (human) = MAPK15 (human) (UniProt Q8TD08); conditions: compound 10.0 µM
# IKBKE (human) = IKBKE (human) (UniProt Q14164); conditions: compound 10.0 µM
# IKBKE (human), sequence (Q14164 whole entry, looked up): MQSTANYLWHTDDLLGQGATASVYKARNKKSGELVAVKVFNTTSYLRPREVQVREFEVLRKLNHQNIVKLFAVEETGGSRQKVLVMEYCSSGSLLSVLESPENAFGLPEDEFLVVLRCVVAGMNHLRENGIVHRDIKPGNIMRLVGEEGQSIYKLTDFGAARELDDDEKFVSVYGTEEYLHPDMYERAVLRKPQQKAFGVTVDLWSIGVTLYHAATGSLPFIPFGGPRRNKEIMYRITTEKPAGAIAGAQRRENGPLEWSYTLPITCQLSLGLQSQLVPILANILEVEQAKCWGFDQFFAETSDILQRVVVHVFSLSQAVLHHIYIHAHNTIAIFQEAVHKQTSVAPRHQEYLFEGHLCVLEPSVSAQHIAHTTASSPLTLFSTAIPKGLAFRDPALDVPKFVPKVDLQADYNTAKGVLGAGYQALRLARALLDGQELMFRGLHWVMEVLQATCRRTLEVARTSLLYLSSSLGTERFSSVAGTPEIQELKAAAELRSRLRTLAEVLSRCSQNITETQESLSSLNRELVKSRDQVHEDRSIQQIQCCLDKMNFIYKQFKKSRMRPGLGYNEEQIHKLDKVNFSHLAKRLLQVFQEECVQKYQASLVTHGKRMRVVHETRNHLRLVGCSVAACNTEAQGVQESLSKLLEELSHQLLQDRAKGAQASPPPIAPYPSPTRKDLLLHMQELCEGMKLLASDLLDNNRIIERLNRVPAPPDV
# PRKAA1 or PRKAA2 (rat) = conditions: compound 10.0 µM; accession and sequence are those of the human protein
# MKNK2 (human) = MKNK2 (human) (UniProt Q9HBH9); conditions: compound 10.0 µM
# MKNK2 (human), sequence (Q9HBH9 whole entry, looked up): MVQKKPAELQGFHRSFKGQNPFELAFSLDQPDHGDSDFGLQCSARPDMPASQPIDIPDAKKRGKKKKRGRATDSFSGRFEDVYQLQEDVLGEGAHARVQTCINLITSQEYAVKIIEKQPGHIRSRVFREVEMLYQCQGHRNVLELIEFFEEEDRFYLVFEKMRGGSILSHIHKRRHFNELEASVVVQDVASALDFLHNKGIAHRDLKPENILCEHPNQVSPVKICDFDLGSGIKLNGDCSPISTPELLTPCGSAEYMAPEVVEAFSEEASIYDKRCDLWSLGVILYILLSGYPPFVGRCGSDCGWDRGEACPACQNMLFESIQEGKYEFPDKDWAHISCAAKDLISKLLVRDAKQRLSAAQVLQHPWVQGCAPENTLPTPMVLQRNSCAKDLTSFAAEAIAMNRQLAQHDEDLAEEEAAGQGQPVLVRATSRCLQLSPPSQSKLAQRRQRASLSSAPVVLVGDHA
# MAPKAPK3 (human) = MAPKAPK3 (human) (UniProt Q16644); conditions: compound 10.0 µM
# MAP2K1 (human) = MAP2K1 (human) (UniProt Q02750); conditions: compound 10.0 µM
# MAPK3 (human) = MAPK3 (human) (UniProt P27361); conditions: compound 10.0 µM
# MAPK3 (human), sequence (P27361 whole entry, looked up): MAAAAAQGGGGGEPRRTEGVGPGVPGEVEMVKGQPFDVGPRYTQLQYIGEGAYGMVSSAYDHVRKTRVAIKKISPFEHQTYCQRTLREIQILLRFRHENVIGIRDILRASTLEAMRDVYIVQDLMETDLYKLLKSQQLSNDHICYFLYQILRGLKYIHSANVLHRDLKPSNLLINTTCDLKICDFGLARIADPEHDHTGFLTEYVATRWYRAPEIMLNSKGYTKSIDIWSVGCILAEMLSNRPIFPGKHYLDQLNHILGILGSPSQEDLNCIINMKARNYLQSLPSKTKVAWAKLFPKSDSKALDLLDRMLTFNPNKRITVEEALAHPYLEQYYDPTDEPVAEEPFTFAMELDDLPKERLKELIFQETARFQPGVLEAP
# [2] = tested on: AKT2 (human), P31751 [S474D]; conditions: compound 10.0 µM
# AKT2 (human), P31751 [S474D], sequence (P31751 whole entry S474D, looked up): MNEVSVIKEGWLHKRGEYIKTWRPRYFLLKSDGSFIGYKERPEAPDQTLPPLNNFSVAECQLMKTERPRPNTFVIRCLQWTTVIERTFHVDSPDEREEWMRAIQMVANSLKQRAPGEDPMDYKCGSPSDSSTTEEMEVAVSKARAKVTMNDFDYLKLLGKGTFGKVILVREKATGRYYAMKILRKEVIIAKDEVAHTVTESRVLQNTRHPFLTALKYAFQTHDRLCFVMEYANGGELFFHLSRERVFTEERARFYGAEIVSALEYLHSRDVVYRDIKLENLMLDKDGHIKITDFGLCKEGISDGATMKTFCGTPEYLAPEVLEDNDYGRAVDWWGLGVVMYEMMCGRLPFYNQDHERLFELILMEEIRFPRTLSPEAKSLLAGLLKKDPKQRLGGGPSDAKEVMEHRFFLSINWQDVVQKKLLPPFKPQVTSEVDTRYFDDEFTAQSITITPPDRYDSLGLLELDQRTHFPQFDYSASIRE
# RPS6KA5 KD1 KD2 (human) = RPS6KA5 KD1 KD2 (human) (UniProt O75582); conditions: compound 10.0 µM
# PLK1 (human) = PLK1 (human) (UniProt P53350); conditions: compound 10.0 µM
# RPS6KA1 KD1 KD2 (human) = RPS6KA1 KD1 KD2 (human) (UniProt Q15418); conditions: compound 10.0 µM
# RPS6KA3 KD1 KD2 (human) = RPS6KA3 KD1 KD2 (human) (UniProt P51812); conditions: compound 10.0 µM
# NEK6 (human) = NEK6 (human) (UniProt Q9HC98); conditions: compound 10.0 µM
# CHEK2 (human) = CHEK2 (human) (UniProt O96017); conditions: compound 10.0 µM
# CHEK2 (human), sequence (O96017 whole entry, looked up): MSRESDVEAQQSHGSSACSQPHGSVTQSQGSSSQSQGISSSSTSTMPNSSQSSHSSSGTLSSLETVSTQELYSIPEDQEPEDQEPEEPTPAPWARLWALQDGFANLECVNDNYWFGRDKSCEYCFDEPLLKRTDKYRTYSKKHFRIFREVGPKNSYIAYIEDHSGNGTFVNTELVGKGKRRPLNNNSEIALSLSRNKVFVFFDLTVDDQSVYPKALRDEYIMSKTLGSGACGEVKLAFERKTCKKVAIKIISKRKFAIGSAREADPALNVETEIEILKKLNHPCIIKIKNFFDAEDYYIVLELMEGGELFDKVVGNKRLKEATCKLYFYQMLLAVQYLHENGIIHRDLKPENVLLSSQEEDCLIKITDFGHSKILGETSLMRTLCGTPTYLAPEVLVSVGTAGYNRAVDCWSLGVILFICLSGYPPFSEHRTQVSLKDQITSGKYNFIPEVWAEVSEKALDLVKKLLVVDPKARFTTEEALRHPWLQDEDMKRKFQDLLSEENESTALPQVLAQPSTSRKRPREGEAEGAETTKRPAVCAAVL
# EPHB1 (human) = EPHB1 (human) (UniProt P54762); conditions: compound 10.0 µM
# FLT1 (human) = FLT1 (human) (UniProt P17948); conditions: compound 10.0 µM
# PAK7 (human) = PAK7 (human) (UniProt Q9P286); conditions: compound 10.0 µM
# EPHA4 (human) = EPHA4 (human) (UniProt P54764); conditions: compound 10.0 µM
# EPHA4 (human), sequence (P54764 whole entry, looked up): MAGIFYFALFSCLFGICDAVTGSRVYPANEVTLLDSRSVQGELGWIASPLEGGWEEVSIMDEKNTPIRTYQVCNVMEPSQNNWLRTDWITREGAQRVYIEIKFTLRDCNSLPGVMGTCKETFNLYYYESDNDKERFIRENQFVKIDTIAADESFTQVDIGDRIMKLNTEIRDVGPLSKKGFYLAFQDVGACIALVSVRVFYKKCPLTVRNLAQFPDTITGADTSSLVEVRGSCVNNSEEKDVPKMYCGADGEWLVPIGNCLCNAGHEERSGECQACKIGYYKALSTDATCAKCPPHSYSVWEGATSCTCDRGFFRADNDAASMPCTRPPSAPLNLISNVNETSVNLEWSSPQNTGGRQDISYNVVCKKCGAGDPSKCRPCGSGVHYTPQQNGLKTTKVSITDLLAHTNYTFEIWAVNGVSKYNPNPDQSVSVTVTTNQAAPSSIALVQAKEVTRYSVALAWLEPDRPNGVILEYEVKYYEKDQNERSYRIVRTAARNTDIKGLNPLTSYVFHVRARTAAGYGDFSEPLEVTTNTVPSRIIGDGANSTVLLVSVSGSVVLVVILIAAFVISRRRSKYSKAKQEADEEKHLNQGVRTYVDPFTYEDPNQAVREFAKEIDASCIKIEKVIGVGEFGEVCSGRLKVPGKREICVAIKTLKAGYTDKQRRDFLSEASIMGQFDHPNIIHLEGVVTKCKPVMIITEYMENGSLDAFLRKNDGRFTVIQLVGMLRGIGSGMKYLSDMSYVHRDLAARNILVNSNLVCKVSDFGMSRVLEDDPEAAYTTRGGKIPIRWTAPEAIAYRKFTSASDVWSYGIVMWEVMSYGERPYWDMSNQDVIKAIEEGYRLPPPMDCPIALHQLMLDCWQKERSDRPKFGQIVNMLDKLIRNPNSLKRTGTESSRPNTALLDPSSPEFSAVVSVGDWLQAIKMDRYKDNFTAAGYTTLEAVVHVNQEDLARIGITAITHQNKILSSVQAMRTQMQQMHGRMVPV
# IKBKB (human) = IKBKB (human) (UniProt O14920); conditions: compound 10.0 µM
# CDK2 CCNA2 (human) = CDK2 CCNA2 (human) (UniProt P20248+P24941); conditions: compound 10.0 µM
# TTK (human) = TTK (human) (UniProt P33981); conditions: compound 10.0 µM
# TTK (human), sequence (P33981 whole entry, looked up): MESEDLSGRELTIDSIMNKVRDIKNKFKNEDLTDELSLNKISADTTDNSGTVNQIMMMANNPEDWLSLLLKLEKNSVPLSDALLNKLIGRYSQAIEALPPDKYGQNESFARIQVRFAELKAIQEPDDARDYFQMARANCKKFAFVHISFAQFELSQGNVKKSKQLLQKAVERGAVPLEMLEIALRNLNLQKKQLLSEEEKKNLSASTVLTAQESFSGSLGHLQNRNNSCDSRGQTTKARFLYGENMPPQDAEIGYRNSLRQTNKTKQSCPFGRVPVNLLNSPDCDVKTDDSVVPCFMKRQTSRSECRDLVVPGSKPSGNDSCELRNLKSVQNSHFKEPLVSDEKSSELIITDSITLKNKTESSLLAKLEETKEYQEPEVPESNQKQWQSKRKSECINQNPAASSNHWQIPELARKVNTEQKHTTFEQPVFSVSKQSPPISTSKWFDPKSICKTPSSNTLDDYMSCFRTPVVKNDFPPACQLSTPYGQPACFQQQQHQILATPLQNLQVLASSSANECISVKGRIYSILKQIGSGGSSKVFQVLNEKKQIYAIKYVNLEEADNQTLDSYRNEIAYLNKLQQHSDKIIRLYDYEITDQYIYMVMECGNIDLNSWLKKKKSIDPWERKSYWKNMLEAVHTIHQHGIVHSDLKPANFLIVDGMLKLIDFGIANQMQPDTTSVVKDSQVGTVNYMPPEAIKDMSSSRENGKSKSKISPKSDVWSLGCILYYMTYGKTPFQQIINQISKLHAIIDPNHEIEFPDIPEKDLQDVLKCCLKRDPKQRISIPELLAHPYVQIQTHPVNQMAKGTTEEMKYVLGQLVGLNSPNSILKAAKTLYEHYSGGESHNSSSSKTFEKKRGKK
# SRC (human) = SRC (human) (UniProt P12931); conditions: compound 10.0 µM
# CSK (human) = CSK (human) (UniProt P41240); conditions: compound 10.0 µM
SMILES,residual activity (SYK (human)),residual activity (MAPK14 (human)),residual activity (NEK2 (human)),residual activity (INSRR (human)),residual activity (PIM2 (human)),residual activity [1],residual activity (CSNK1D (human)),residual activity (BTK (human)),residual activity (PRKACA (human)),residual activity (RIPK2 (human)),residual activity (EPHB4 (human)),residual activity (MAPK1 (human)),residual activity (MAPK15 (human)),residual activity (IKBKE (human)),residual activity (PRKAA1 or PRKAA2 (rat)),residual activity (MKNK2 (human)),residual activity (MAPKAPK3 (human)),residual activity (MAP2K1 (human)),residual activity (MAPK3 (human)),residual activity [2],further results
CCOC(=O)c1ccc(N2NC(=O)/C(=C/c3ccc([N+](=O)[O-])o3)C2=O)cc1,92%,105%,125%,106%,107%,120%,112%,70%,95%,134%,89%,82%,86%,156%,108%,89%,41%,29%,103%,49%,residual activity (RPS6KA5 KD1 KD2 (human)): 62%; residual activity (PLK1 (human)): 92%; residual activity (RPS6KA1 KD1 KD2 (human)): 92%; residual activity (RPS6KA3 KD1 KD2 (human)): 37%; residual activity (NEK6 (human)): 106%; residual activity (CHEK2 (human)): 92%; residual activity (EPHB1 (human)): 85%; residual activity (FLT1 (human)): 47%; residual activity (PAK7 (human)): 118%; residual activity (EPHA4 (human)): 75%; residual activity (IKBKB (human)): 108%; residual activity (CDK2 CCNA2 (human)): 110%; residual activity (TTK (human)): 90%
CC(C)C[C@H](NC(=O)CNC(=O)c1cc(Cl)ccc1Cl)B1OC(=O)CC(CC(=O)O)(C(=O)O)O1 (some centres not stated),66%,88%,94%,104%,94%,94%,81%,90%,95%,91%,91%,86%,100%,91%,82%,80%,102%,92%,106%,82%,residual activity (SRC (human)): 86%; residual activity (CSK (human)): 69%; residual activity (PLK1 (human)): 97%; residual activity (RPS6KA1 KD1 KD2 (human)): 80%; residual activity (RPS6KA3 KD1 KD2 (human)): 94%; residual activity (NEK6 (human)): 82%; residual activity (CHEK2 (human)): 89%; residual activity (EPHB1 (human)): 75%; residual activity (FLT1 (human)): 64%; residual activity (PAK7 (human)): 94%; residual activity (EPHA4 (human)): 69%; residual activity (IKBKB (human)): 97%; residual activity (CDK2 CCNA2 (human)): 86%; residual activity (TTK (human)): 93%
